How the values were obtained:
[1] = tested on: serum 1a (individual 1, early serum); format: binding, human
[2] = tested on: serum 1b (individual 1, late serum); format: binding, human
serum 2 (individual 2) = format: binding, human
serum 6 (individual 6) = format: binding, human
serum 37 (individual 37) = format: binding, human
serum 62 (individual 62) = format: binding, human
serum London = format: binding, human
serum SARS-yellow = format: binding, human
serum SARS-green = format: binding, human
[3] = tested on: control serum LUMC (pooled serum of ten healthy hospital workers); format: binding, human
[4] = tested on: control serum Blood-bank (commercial negative donor pooled serum); format: binding, human
[5] = tested on: sera SARS-green, SARS-yellow, 1a, 1b, 2, 6, 37, 62 and London; format: binding, human
[6] = tested on: rabbit serum obtained by immunizing with SARS-CoV strain Frankfurt 1; format: binding

Sequence | Binding of serum 1a to linear peptides of Orf14 of SARS-CoV TOR2 [1] | Binding of serum 1b to linear peptides of Orf14 of SARS-CoV TOR2 [2] | Binding of serum 2 to linear peptides of Orf14 of SARS-CoV TOR2 (serum 2 (individual 2)) | Binding of serum 6 to linear peptides of Orf14 of SARS-CoV TOR2 (serum 6 (individual 6)) | Binding of serum 37 to linear peptides of Orf14 of SARS-CoV TOR2 (serum 37 (individual 37)) | Binding of serum 62 to linear peptides of Orf14 of SARS-CoV TOR2 (serum 62 (individual 62)) | Binding of serum London to linear peptides of Orf14 of SARS-CoV TOR2 (serum London) | Binding of serum SARS-yellow to linear peptides of Orf14 of SARS-CoV TOR2 (serum SARS-yellow) | Binding of serum SARS-green to linear peptides of Orf14 of SARS-CoV TOR2 (serum SARS-green) | Control serum LUMC linear peptides [3] | Control serum LUMC looped peptides [3] | Control Serum Blood-Bank Looped peptides [4] | Control serum Blood-bank linear peptides [4] | Recognition of the peptide by sera of individuals infected by SARS-CoV, form recognized [5] | Recognition by the rabbit serum [6]
NFLKEQHCQKASTQR | 0.4 | 0.3 | 0.4 | 0.4 | 0.5 | 0.3 | 0.4 | 0.3 | 0.3 | 0.7 | 0.7 | 0.6 | 0.5 | recognized in looped form | –
PCYNFLKEQHCQKAS | 0.3 | 0.2 | 0.1 | 0.3 | 0.4 | 0.1 | 0.2 | 0.1 | 0.1 | 0.1 | 0.5 | 0.7 | 0.0 | recognized in looped form | –
ASTQREAEAAVKPLL | 0.4 | 0.3 | 0.4 | 0.5 | 0.5 | 0.4 | 0.4 | 0.4 | 0.4 | 0.4 | 0.8 | 0.9 | 0.5 | recognized in looped form | –
EAAVKPLLAPHHVVA | 0.6 | 0.5 | 0.7 | 0.5 | 0.7 | 0.6 | 0.8 | 0.6 | 0.6 | 0.8 | 0.7 | 0.8 | 0.6 | – | recognized by the rabbit serum
AVKPLLAPHHVVAVI | 0.6 | 0.4 | 0.5 | 0.5 | 0.7 | 0.5 | 0.5 | 0.6 | 0.3 | 0.6 | 0.7 | 0.7 | 0.7 | – | recognized by the rabbit serum

Reference: patent publication US20060154243A1 (priority 2003, published 2006)
